From US11306079B2, “3-(5-amino-pyrazin-2-yl)-benzenesulfonamide derivatives and related compounds as PI3K-gamma kinase inhibitors” (Incyte Corporation, priority 2017, dated 2022)
pIC50: −log10 of the molar value. Counter-ions that a name gives are not always drawn.

Columns and labels:
[1] = target: PI3Kγ (p110γ) Recombinant Human Protein (Homo sapiens (Human), UniProt P48736); test: PI3K-γ Scintillation Proximity Assay; format: biochemical; settings: 20 μM PIP2, 2 μM ATP, 13 nM PI3Kγ, 120 min, room temperature
Chain of PI3Kγ (p110γ) Recombinant Human Protein (P48736 whole entry): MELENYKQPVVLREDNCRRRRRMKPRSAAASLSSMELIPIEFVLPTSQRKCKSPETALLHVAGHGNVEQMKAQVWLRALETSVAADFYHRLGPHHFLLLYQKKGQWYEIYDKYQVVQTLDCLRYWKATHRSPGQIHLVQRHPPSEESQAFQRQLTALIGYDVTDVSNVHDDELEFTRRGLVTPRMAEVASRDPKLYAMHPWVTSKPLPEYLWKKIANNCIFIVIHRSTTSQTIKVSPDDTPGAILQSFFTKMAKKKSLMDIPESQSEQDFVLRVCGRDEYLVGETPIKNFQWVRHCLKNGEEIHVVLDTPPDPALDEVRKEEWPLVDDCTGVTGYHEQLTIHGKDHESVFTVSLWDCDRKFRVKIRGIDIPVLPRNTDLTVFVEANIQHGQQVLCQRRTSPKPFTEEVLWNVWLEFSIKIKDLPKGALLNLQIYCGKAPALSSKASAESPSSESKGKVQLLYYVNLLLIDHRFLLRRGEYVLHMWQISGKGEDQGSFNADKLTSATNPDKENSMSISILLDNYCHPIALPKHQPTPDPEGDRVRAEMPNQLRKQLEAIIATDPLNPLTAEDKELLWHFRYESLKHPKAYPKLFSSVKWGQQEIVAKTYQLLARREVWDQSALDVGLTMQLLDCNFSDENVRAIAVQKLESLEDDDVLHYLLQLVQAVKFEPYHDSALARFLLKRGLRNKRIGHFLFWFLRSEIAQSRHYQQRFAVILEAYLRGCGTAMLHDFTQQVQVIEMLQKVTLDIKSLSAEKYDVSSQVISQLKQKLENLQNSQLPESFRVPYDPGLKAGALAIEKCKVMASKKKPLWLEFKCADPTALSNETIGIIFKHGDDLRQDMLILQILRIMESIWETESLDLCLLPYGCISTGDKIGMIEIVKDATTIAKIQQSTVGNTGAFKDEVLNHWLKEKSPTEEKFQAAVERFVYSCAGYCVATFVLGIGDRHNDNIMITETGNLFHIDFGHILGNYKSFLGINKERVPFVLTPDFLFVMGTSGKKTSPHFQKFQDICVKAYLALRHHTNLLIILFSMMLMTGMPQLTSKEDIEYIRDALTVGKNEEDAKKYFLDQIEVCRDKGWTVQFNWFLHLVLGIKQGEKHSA
Description: Example B. PI3K-γ Scintillation Proximity Assay
(§1) [γ-^33P]ATP (10 mCi/mL) and Wheat Germ Agglutinin (WGA) YSi SPA Scintillation Beads was purchased from Perkin-Elmer (Waltham, Mass.). Lipid kinase substrate, D-myo-Phosphatidylinositol 4,5-bisphosphate (PtdIns(4,5)P2)D (+)-sn-1,2-di-O-octanoylglyceryl, 3-O-phospho linked (PIP2), CAS 204858-53-7, was purchased from Echelon Biosciences (Salt Lake City, Utah). PI3Kγ (p110γ) Recombinant Human Protein was purchased from Life technology (Grand island, NY), ATP, MgCl2, DTT, EDTA, MOPS and CHAPS were purchased from Sigma-Aldrich (St. Louis, Mo.).
(§2) The kinase reaction was conducted in polystyrene 384-well Greiner Bio-one white plate from Thermo Fisher Scientific in a final volume of 25 μL. Inhibitors were first diluted serially in DMSO and added to the plate wells before the addition of other reaction components. The final concentration of DMSO in the assay was 2%. The PI3Kγ assay was carried out at room temperature in 20 mM MOPS, pH 6.7, 10 mM MgCl2, 5 mM DTT and CHAPS 0.03%. Reactions were initiated by the addition of ATP, the final reaction mixture consisted of 20 μM PIP2, 2 μM ATP, 0.5 μCi [γ-^33P] ATP, 13 nM PI3Kγ. Reactions were incubated for 120 min and terminated by the addition of 40 μL SPA beads suspended in quench buffer: 163 mM potassium phosphate pH 7.8, 20% glycerol, 25 mM EDTA. The final concentration of SPA beads is 1.0 mg/mL. After the plate sealing, plates were shaken overnight at room temperature and centrifuged at 1500 rpm for 10 min, the radioactivity of the product was determined by scintillation counting on Topcount (Perkin-Elmer). IC50 determination was performed by fitting the curve of percent of the solvent control activity versus the log of the inhibitor concentration using the GraphPad Prism 6.0 software.

[2] = target: PI3Kδ (p110δ/p85α) Recombinant Human Protein (Homo sapiens (Human), UniProt O00329); test: PI3Kδ Scintillation Proximity Assay; format: biochemical; settings: 20 μM PIP2, 2 μM ATP, 3.4 nM PI3Kδ, 120 min, room temperature
Chain of PI3Kδ (p110δ/p85α) Recombinant Human Protein (O00329 whole entry): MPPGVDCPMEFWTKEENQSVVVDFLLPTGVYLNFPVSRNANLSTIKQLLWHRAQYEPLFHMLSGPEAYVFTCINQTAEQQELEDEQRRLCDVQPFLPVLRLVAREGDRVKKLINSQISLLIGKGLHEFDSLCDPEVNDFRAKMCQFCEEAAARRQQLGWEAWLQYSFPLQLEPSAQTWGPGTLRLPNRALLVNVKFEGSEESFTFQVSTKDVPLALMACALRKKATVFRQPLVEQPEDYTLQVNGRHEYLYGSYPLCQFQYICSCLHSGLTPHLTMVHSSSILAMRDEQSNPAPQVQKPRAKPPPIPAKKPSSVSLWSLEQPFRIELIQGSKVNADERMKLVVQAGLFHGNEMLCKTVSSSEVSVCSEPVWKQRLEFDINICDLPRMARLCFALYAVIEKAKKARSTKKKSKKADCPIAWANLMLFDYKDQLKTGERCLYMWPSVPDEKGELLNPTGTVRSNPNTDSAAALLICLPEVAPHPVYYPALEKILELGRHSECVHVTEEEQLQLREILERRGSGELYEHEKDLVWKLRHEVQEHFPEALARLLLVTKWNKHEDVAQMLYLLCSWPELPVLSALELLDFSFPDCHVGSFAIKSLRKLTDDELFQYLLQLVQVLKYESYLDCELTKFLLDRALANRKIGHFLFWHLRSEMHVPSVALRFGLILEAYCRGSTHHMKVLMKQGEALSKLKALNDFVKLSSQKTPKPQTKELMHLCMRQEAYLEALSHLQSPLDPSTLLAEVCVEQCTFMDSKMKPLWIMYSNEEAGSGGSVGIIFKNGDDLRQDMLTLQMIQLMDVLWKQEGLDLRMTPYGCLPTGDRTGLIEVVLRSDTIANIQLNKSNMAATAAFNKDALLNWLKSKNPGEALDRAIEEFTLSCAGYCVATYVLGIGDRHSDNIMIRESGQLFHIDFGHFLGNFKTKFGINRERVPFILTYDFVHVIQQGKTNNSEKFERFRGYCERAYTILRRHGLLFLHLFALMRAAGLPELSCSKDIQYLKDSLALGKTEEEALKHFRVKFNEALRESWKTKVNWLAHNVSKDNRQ
Chain of PI3Kδ (p110δ/p85α) Recombinant Human Protein (P27986 whole entry partner): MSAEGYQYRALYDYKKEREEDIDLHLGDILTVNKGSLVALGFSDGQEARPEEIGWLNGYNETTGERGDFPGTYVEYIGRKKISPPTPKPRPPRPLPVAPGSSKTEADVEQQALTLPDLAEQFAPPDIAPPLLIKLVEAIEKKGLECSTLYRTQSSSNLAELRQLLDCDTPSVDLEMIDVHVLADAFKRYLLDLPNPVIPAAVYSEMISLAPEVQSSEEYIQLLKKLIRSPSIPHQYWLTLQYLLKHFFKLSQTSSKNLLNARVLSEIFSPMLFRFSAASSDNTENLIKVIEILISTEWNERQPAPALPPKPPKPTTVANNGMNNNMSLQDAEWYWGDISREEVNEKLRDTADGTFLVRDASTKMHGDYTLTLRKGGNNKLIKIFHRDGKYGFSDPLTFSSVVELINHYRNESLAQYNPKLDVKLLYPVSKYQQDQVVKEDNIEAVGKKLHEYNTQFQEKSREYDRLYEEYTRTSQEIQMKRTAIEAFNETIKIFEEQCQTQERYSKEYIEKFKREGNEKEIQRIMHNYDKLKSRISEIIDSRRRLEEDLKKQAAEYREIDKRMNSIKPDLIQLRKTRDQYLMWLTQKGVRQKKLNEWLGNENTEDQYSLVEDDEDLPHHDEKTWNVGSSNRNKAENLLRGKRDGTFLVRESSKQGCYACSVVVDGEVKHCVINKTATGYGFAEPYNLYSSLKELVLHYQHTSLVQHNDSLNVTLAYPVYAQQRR
Description: Example C. PI3Kδ Scintillation Proximity Assay
as §1, with “PI3Kδ (p110δ/p85α)” for “PI3Kγ (p110γ)”, “Eurofins (St Charles, Mo.).” for “Life technology (Grand island, NY),”
as §2, with “PI3Kδ” for “PI3Kγ”, “3.4” for “13”, “PI3Kδ.” for “PI3Kγ.”

[3] = test system: Phosphorylated Ribosomal Protein S6 (RPS6) in THP-1 cells; test: THP-1 RPS6 ELISA Assay; format: cell-based; settings: Homo sapiens; serum starved THP-1 cells, 2 hours with compound, 10 nM MCP-1 for 15 minutes, Phospho-RPS6 ELISA; read-out: PI3Kγ_THP1_RPS6_ELISA IC50
Description: Example A. THP-1 RPS6 ELISA Assay
To measure the Phosphorylated Ribosomal Protein S6 (RPS6) in cell lysates, THP-1 cells (Human Acute Monocytic Leukemia) are purchased from ATCC (Manassas, Va.) and maintained in RPMI with 10% FBS (Gibco/Life Technologies, Carlsbad, Calif.). For the assay, THP-1 cells are serum starved overnight in RPMI, then plated in RPMI (2×10^5 cells/well in 90 μL) into 96-well flat-bottom tissue culture treated plates (Corning, Corning, N.Y.), in the presence or absence of a concentration range of test compounds. Covered plates are incubated for 2 hours at 37° C., 5% CO2 then treated with or without 10 nM MCP-1 (MYBioSource, San Diego, Calif.) for 15 minutes at 37° C., 5% CO2. Plates are centrifuged at 1600 RPM and supernatants are removed. Cells are lysed in Lysis Buffer (Cell Signaling, Danvers, Mass.) with Protease Inhibitor (Calbiochem/EMD, Germany), PMSF (Sigma, St Louis Mo.), HALTS (Thermo Fisher, Rockford, Ill.) for 30 min on wet ice. Cell lysates are frozen at −80° C. before testing. The lysates are tested in the Human/Mouse/Rat Phospho-RPS6 ELISA (R&D Systems, Inc. Minn, Minn.). The plate is measured using a microplate reader (SpectraMax M5—Molecular Devices, LLC Sunnyvale, Calif.) set to 450 nm with a wavelength correction of 540. IC50 determination is performed by fitting the curve of inhibitor percent inhibition versus the log of the inhibitor concentration using the GraphPad Prism 5.0 software.

SMILES | pIC50 [1] | pIC50 [2] | pIC50 [3]
[2H]C([2H])([2H])c1ccc(S(=O)(=O)NC23CC(C#N)(C2)C3)cc1-c1cnc(N)c(-n2nccn2)n1 [Example 50, 3-(5-Amino-6-(2H-1,2,3-triazol-2-yl)pyrazin-2-yl)-N-(3-cyanobicyclo[1.1.1]pentan-1-yl)-4-(methyl-d3)benzenesulfonamide Trifluoroacetate Salt] | ≥ 7.00 | ≥ 7.00 | ≥ 6.30
Cc1ccc(S(=O)(=O)NC23CCC(C#N)(C2)C3)cc1-c1cnc(N)c(-n2nccn2)n1 [Example 42, 3-(5-Amino-6-(2H-1,2,3-triazol-2-yl)pyrazin-2-yl)-N-(4-cyanobicyclo[2.1.1]hexan-1-yl)-4-methylbenzenesulfonamide Trifluoroacetate Salt] | ≥ 7.00 | ≥ 6.30 | ≥ 7.00
[2H]C([2H])([2H])c1ccc(S(=O)(=O)NC23CC(CO)(C2)C3)cc1-c1cnc(N)c(-c2ccncn2)n1 [Example 81, 3-(5-Amino-6-(pyrimidin-4-yl)pyrazin-2-yl)-N-(3-(hydroxymethyl)bicyclo[1.1.1]pentan-1-yl)-4-(methyl-d3)benzenesulfonamide trifluoroacetate salt] | ≥ 7.00 | ≥ 7.00 | ≥ 6.30
O=C(O)C(F)(F)F.[2H]C([2H])([2H])c1ccc(S(=O)(=O)NC23CNC(C2)C3)cc1-c1cnc(N)c(-c2cnco2)n1 [Example 56, 3-(5-Amino-6-(oxazol-5-yl)pyrazin-2-yl)-N-(2-azabicyclo[2.1.1]hexan-4-yl)-4-(methyl-d3)benzenesulfonamide trifluoroacetate salt] | ≥ 7.00 | ≥ 6.30 | ≥ 6.00
Cc1ccc(S(=O)(=O)NC23CCC(C#N)(C2)C3)cc1-c1cnc(N)c(-n2ccnn2)n1 [Example 44, 3-(5-Amino-6-(1H-1,2,3-triazol-1-yl)pyrazin-2-yl)-N-(4-cyanobicyclo[2.1.1]hexan-1-yl)-4-methylbenzenesulfonamide Trifluoroacetate Salt] | ≥ 7.00 | ≥ 7.00 | ≥ 7.00
Cc1ccc(S(=O)(=O)NC23CC(C#N)(C2)C3)cc1-c1cnc(N)c(-n2ccnn2)n1 [Example 43, 3-(5-Amino-6-(1H-1,2,3-triazol-1-yl)pyrazin-2-yl)-N-(3-cyanobicyclo[1.1.1]pentan-1-yl)-4-methylbenzenesulfonamide Trifluoroacetate Salt] | ≥ 7.00 | ≥ 6.30 | ≥ 7.00
[2H]C([2H])([2H])c1ccc(S(=O)(=O)NC23CCC(C#N)(C2)C3)cc1-c1cnc(N)c(-c2cnc(C)s2)n1 [Example 65, 3-(5-Amino-6-(2-methylthiazol-5-yl)pyrazin-2-yl)-N-(4-cyanobicyclo[2.1.1]hexan-1-yl)-4-(methyl-d3)benzenesulfonamide trifluoroacetate salt] | ≥ 7.00 | ≥ 7.00 | ≥ 7.00
Cc1ccc(S(=O)(=O)NC23CCC(O)(CC2)C3)cc1-c1cnc(N)c(-c2ccncc2)n1 [Example 17, 3-(5-Amino-6-(pyridin-4-yl)pyrazin-2-yl)-N-(4-hydroxybicyclo[2.2.1]heptan-1-yl)-4-methylbenzenesulfonamide Trifluoroacetate Salt] | ≥ 7.00 | ≥ 6.30 | ≥ 6.30
Cc1ccc(S(=O)(=O)NC23CC(C(C)(C)O)(C2)C3)cc1-c1cnc(N)c(-n2cncn2)n1 [Example 29, 3-(5-Amino-6-(1H-1,2,4-triazol-1-yl)pyrazin-2-yl)-N-(3-(2-hydroxypropan-2-yl)bicyclo[1.1.1]pentan-1-yl)-4-methylbenzenesulfonamide trifluoroacetate salt] | ≥ 7.00 | ≥ 6.30 | ≥ 6.30
[2H]C([2H])([2H])c1ccc(S(=O)(=O)NC23CCN(CC2)C3)cc1-c1cnc(N)c(-c2ccncn2)n1 [Example 95, 3-(5-amino-6-(pyrimidin-4-yl)pyrazin-2-yl)-N-(1-azabicyclo[2.2.1]heptan-4-yl)-4-(methyl-d3)benzenesulfonamide] | ≥ 7.00 | ≥ 7.00 | ≥ 7.00
Cc1ccc(S(=O)(=O)NC23CCC(CO)(CC2)OC3)cc1-c1cnc(N)c(-c2ccncc2F)n1 [Example 20, 3-(5-Amino-6-(3-fluoropyridin-4-yl)pyrazin-2-yl)-N-(1-(hydroxymethyl)-2-oxabicyclo[2.2.2]octan-4-yl)-4-methylbenzenesulfonamide trifluoroacetate salt] | ≥ 7.00 | ≥ 6.30 | ≥ 6.30
Cc1ccc(S(=O)(=O)NC23CC(C#N)(C2)C3)cc1-c1cnc(N)c(-n2cncn2)n1 [Example 23, 3-(5-Amino-6-(1H-1,2,4-triazol-1-yl)pyrazin-2-yl)-N-(3-cyanobicyclo[1.1.1]pentan-1-yl)-4-methylbenzenesulfonamide Trifluoroacetate Salt] | ≥ 7.00 | ≥ 7.00 | ≥ 6.30
Cc1ncc(-c2cc(-c3cc(S(=O)(=O)NC45CCC(C#N)(C4)C5)ccc3C)cnc2N)s1 [Example 85, 3-(6-amino-5-(2-methylthiazol-5-yl)pyridin-3-yl)-N-(4-cyanobicyclo[2.1.1]hexan-1-yl)-4-methylbenzenesulfonamide] | ≥ 7.00 | ≥ 7.00 | ≥ 7.00
Cc1ccc(S(=O)(=O)NC23CCC(C#N)(C2)C3)cc1-c1cnc(N)c(-c2ncn(C)n2)n1 [Example 46, 3-(5-Amino-6-(1-methyl-1H-1,2,4-triazol-3-yl)pyrazin-2-yl)-N-(4-cyanobicyclo[2.1.1]hexan-1-yl)-4-methylbenzenesulfonamide Trifluoroacetate Salt] | ≥ 7.00 | ≥ 7.00 | ≥ 6.30
O=C(O)C(F)(F)F.[2H]C([2H])([2H])c1ccc(S(=O)(=O)NC23CNC(C2)C3)cc1-c1cnc(N)c(-c2cnc(C3CC3)s2)n1 [Example 55, 3-(5-Amino-6-(2-cyclopropylthiazol-5-yl)pyrazin-2-yl)-N-(2-azabicyclo[2.1.1]hexan-4-yl)-4-(methyl-d3)benzenesulfonamide trifluoroacetate salt] | ≥ 7.00 | ≥ 7.00 | ≥ 6.30
